Tests used:
wild-type (WT) MEFs = assay: Western blot analysis of collagen α1(I) polypeptide, WT MEFs; format: cell-based, mouse; settings: ML-7 treatment
Protocol: (§1) ML-7, blebbistatin, cytochalasin B, puromycin, and cycloheximide were purchased from Sigma. ML-7 was used at 40 μM, blebbistatin was used at 100 μM, and cytochalasin B was used at 20 μM. Cells were incubated with the drugs for 16 h before analysis. Puromycin (200 μg/ml) and cycloheximide (100 μg/ml) were added to the cells for 2 h. Human lung fibroblasts have been described previously.16 Scleroderma fibroblasts were purchased from the European Collection of Cell Cultures (cell line BM0070) and derived from the skin of a scleroderma patient. MEFs were derived from knock-in mice in which the 5′SL of the collagen α1(I) gene has been mutated (Parsons et al., submitted). Several independent cell isolates were used throughout the study. All cells were cultured in Dulbecco's modified Eagle's medium supplemented with 10% fetal bovine serum for up to 10 passages. […] [^32P]dCTP was included in the PCR step to label the products, which were resolved on sequencing gels, as described previously.^8,31,49,50 When RNA from polysomal fractions was analyzed, an equal aliquot of each fraction was used. […]
(§2) Protein concentration was estimated by the Bradford assay, with bovine serum albumin as standard.^51 Western blot analyses of cellular proteins were performed using 50 μg of protein. […] The medium was collected, and an aliquot was analyzed directly by Western blot analysis. […]

[1] = system: lung fibroblasts and scleroderma fibroblasts; assay: Intracellular collagen degradation with proteosome inhibitor epoxomycin, Western blot; format: cell-based, human
Excerpt: FIG. 3 Disruption of nonmuscle myosin by ML-7 results in secretion of homotrimeric type I collagen. (a) ML-7 disrupts nonmuscle myosin filaments. Immunostaining of nonmuscle myosin IIB in control lung fibroblasts (CON) and in lung fibroblasts treated with ML-7 (ML-7). […] Western blot analysis of control cells (lane 1) and cells treated with ML-7 (lane 2) using anti-myosin IIB antibody (MYO IIB). Fibronectin (FIB), loading control. (c) Effect of ML-7 on collagen secretion from lung fibroblasts. Western blot analysis of cellular proteins from control cells (lane 2) and ML-7-treated cells (lane 1), and of medium proteins from control cells (lane 4) and ML-7-treated cells (lane 3). COL1A1, collagen α1(I) polypeptide; COL1A2, collagen α2(I) polypeptide; FIB, fibronectin as loading control. […] The medium samples from (c) were analyzed under reducing conditions (lanes 1 and 2) and nonreducing conditions […] with antibody specific for collagen α1(I) polypeptide. […] Intracellular collagen was analyzed by Western blot analysis using antibodies against collagen α1(I) polypeptide (COL1A1) and α2(I) polypeptide (COL1A2). […]
as §2

myosin IIB = assay: Western blot analysis of total nonmuscle myosin IIB level; format: cell-based, human; settings: Western blot; ML-7 40 μM 16 h
Protocol: as §1, §2

Δ5′SL MEFs = assay: Western blot analysis of collagen α1(I) polypeptide, Δ5′SL MEFs; format: cell-based, mouse; settings: ML-7 treatment
Protocol: as §1, §2

[2] = system: primary scleroderma skin fibroblasts; assay: Western blot analysis of cellular and medium collagen polypeptides, scleroderma fibroblasts; format: cell-based, human; settings: 16 h, ML-7 40 μM, blebbistatin 100 μM
Protocol: ML-7, blebbistatin, cytochalasin B, puromycin, and cycloheximide were purchased from Sigma. ML-7 was used at 40 μM, blebbistatin was used at 100 μM, and cytochalasin B was used at 20 μM. Cells were incubated with the drugs for 16 h before analysis. Puromycin (200 μg/ml) and cycloheximide (100 μg/ml) were added to the cells for 2 h. Human lung fibroblasts have been described previously.16 Scleroderma fibroblasts were purchased from the European Collection of Cell Cultures (cell line BM0070) and derived from the skin of a scleroderma patient. MEFs were derived from knock-in mice in which the 5′SL of the collagen α1(I) gene has been mutated (Parsons et al., submitted). Several independent cell isolates were used throughout the study. All cells were cultured in Dulbecco's modified Eagle's medium supplemented with 10% fetal bovine serum for up to 10 passages. Plasmid constructs and adenovirus preparation. The HA-tagged LARP6 clone and the deletion mutants have been described previously.^16 Adenoviruses were constructed by recloning of the constructs into the pAdCMVTRACK vector, followed by recombination with the pAdEasy vector and amplification, as described previously.^48 Expression of each construct was verified by Western blot analysis. The viruses made express both the full-size test protein and the green fluorescent protein (GFP), which is encoded by an independent transcription unit.^48 Expression of GFP served as control for viral transduction. RT-PCR analysis Total cellular RNA was isolated using an RNA isolation kit (Sigma). RT-PCRs were performed with 100 ng of total RNA or using rTth reverse transcriptase (Boca Scientific, Boca Raton, Fla.). [^32P]dCTP was included in the PCR step to label the products, which were resolved on sequencing gels, as described previously.^8,31,49,50 When RNA from polysomal fractions was analyzed, an equal aliquot of each fraction was used. The number of cycles was adjusted to within the linear range of the reaction. The primers used for RT-PCR were as follows: h-collagen α1(I), 5′ primer […] (SEQ ID NO:3) and 3′ primer […] (SEQ ID NO:4); h-collagen α2(I), 5′ primer […] (SEQ ID NO:5) and 3′ primer […] (SEQ ID NO:6).
Protein concentration was estimated by the Bradford assay, with bovine serum albumin as standard.^51 Western blot analyses of cellular proteins were performed using 50 μg of protein. For Western blot analysis of secreted proteins, equal numbers of cells were seeded, serum-free medium was added to the cells, and incubation continued for 3 h. The medium was collected, and an aliquot was analyzed directly by Western blot analysis. Use of serum free medium in collecting secreted proteins is essential because fetal calf serum contains substantial amounts of collagen and fibronectin.^15,31 For immunostaining, cells were seeded onto glass coverslips. After treatment, the cells were fixed with 4% paraformaldehyde for 30 min at room temperature and permeabilized with 0.5% Triton X-100 in phosphatebuffered saline (PBS) for 10 min. After the cells had been blocked with 10% goat serum/5% bovine serum albumin in PBS for 1 h at room temperature, they were incubated with primary antibody overnight at 4° C., washed, and visualized with AlexaFluor594-conjugated or Cy-2-conjugated secondary antibodies. The cells were mounted using VECTASHIELD mounting medium containing […], 6-diamidino-2-phenylindole (Vector Laboratories), and images were taken by a Leica TCS SP2 AOBS laser confocal microscope equipped with a Chameleon Ti: Sapphire multiphoton laser. Optical sections were processed with LCSLite software.
To assess the role of nonmuscle myosin in collagen synthesis, we disrupted nonmuscle myosin filaments in two different cell types: primary human lung fibroblasts and primary scleroderma skin fibroblasts. These cells are responsible for lung and skin fibrosis. […]

[3] = system: nonmuscle myosin filaments; assay: Immunostaining of nonmuscle myosin IIB filaments in scleroderma fibroblasts; format: cell-based, human; settings: ML-7, compared with effect in lung fibroblasts
Protocol: as §1, §2

Structure (SMILES): O=S(=O)(c1cccc2c(I)cccc12)N1CCCNCC1 [ML-7]
- cellular level of α1(I) polypeptide (wild-type (WT) MEFs): did not change
- secretion of α1(I) polypeptide into the medium (wild-type (WT) MEFs): drastically reduced
- intracellular level of both collagen polypeptides ([1]; ML-7 in combination with epoxomycin vs epoxomycin alone, lung and scleroderma fibroblasts): significantly increased
- additional (degradation) product of approximately 120 kDa ([1]; epoxomycin and ML-7, not seen with epoxomycin alone): prominently seen
- total level of myosin IIB (myosin IIB): remained unchanged
- secretion of α1(I) polypeptide into the medium (Δ5′SL MEFs): did not affect
- intracellular level of collagen α1(I) polypeptide [2]: not changed
- intracellular level of collagen α2(I) polypeptide [2]: reduced
- secretion of collagen α1(I) polypeptide into the medium ([2]; cytochalasin B 20 μM): barely detectable
- secretion of collagen α2(I) polypeptide into the medium ([2]; cytochalasin B 20 μM): absent
- secretion/expression of fibronectin ([2]; cytochalasin B 20 μM): not affected
- myosin IIB immunostaining (filaments) [3]: same effect

Source: patent US8697385B1, “Protein controlling synthesis of collagen and associated methods” (Florida State University Research Foundation, Inc., priority 2009, dated 2014)
